In ChEMBL document CHEMBL1129370, “Synthesis, ligand binding, and quantitative structure-activity relationship study of 3 beta-(4'-substituted phenyl)-2 beta-heterocyclic tropanes: evidence for an electrostatic interaction at the 2 beta-position” (J Med Chem, 1996) one finds IC50 and Ki data, which are given here for 27 compounds.

Assay [1] concerns the target Norepinephrine transporter (Rattus norvegicus, UniProt Q9WTR4). Briefly: Binding affinity against Norepinephrine transporter using [3H]nisoxetine in midbrain of rat. It counts as tissue-based.
Assay [2] concerns the target T1, Sodium-dependent dopamine transporter (Rattus norvegicus, UniProt P23977). Description: Binding affinity against Dopamine transporter using [3H]WIN-35 428 in rat striatum. Format: tissue-based.
Assay [3] addresses Sodium-dependent serotonin transporter (Rattus norvegicus, UniProt P31652). Briefly: Binding affinity against serotonin transporter using [3H]paroxetine in rat frontal cortex. Format: tissue-based.
In assay [4] the target is T1, Sodium-dependent dopamine transporter. Description: Ability to inhibit [3H]dopamine uptake into rat striatal synaptosomes. It counts as subcellular, Brain.
The target is the same in assay [5]. Briefly: Ability to inhibition uptake of […].

Structures are written as SMILES.

Sequence of Sodium-dependent serotonin transporter (P31652 whole entry): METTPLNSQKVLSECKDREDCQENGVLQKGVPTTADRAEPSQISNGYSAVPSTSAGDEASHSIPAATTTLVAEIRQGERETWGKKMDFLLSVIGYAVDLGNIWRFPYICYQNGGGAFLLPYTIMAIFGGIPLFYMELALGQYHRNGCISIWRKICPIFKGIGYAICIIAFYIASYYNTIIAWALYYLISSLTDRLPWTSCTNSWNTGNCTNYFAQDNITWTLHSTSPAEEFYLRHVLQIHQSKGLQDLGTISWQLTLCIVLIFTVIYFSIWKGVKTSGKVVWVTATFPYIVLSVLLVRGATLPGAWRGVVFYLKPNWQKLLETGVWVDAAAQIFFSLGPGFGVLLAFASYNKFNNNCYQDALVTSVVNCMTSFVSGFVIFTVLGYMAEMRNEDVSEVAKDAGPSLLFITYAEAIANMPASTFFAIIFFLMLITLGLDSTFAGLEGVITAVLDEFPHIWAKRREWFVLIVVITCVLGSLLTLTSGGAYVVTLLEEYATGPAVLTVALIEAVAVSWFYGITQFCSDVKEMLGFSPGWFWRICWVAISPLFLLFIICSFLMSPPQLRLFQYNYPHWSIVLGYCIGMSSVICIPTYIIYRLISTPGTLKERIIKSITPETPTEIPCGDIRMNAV
T1 sequence (P23977 whole entry): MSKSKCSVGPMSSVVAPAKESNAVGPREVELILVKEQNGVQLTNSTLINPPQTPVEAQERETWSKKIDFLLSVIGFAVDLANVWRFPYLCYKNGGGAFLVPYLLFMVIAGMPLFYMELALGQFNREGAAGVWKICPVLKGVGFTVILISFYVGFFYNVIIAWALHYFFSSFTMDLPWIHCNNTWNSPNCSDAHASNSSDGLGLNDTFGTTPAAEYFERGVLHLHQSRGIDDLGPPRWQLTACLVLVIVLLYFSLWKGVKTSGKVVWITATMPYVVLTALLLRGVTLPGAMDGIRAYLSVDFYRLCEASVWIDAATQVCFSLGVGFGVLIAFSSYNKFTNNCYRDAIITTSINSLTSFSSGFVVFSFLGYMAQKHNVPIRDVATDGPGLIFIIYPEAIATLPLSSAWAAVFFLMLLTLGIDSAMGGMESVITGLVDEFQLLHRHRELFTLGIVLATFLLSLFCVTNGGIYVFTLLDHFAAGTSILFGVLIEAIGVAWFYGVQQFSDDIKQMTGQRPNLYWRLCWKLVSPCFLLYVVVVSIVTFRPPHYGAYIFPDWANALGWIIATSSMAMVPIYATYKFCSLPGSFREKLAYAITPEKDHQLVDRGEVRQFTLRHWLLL
Sequence of Norepinephrine transporter (Q9WTR4 whole entry): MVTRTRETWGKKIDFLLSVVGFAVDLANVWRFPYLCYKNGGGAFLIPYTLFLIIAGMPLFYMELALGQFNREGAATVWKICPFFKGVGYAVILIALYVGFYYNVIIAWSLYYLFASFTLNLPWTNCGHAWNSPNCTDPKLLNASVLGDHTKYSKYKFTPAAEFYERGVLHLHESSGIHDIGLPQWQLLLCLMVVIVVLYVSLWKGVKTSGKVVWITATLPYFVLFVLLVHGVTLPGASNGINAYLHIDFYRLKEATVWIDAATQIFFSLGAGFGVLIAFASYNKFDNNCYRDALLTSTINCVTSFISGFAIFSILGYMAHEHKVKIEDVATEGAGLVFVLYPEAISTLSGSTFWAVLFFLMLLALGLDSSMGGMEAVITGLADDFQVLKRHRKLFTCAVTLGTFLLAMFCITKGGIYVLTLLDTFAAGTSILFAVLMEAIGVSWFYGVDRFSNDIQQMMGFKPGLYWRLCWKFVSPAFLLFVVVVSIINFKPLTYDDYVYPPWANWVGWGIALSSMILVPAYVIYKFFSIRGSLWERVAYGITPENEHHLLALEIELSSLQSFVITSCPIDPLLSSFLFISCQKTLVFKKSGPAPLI

As to `COC(=O)[C@@H]1C2CC[C@H](C[C@@H]1c1ccc(C)cc1)N2C`, in assay [1], the IC50 (as a rule, the concentration at which inhibition is half-maximal) is 0.06 µM.
For the compound `Cc1ccc(C2C[C@H]3CCC([C@H]2c2cc(-c4ccccc4)no2)N3C)cc1` (some centres not stated), the IC50 came to 0.00158 µM in assay [2], 0.398 µM in assay [1] and 5.11 µM in assay [3].
The matching figures for `CN1C2CC[C@@H]1CC(c1ccc(Cl)cc1)[C@@H]2c1ncc(-c2ccccc2)s1` (some centres not stated): 0.00571 µM, 8.56 µM and 10.3 µM.
Take `Cc1cc([C@H]2C(c3ccc(Cl)cc3)C[C@H]3CCC2N3C)on1` (some centres not stated): the half-maximal inhibitory concentration (IC50) in assay [2] was determined as 0.00059 µM; in assay [1], 0.181 µM; in assay [3], 0.572 µM.
Regarding `CN1C2CCC1[C@@H](c1nnc(-c3ccccc3)s1)C(c1ccc(Cl)cc1)C2` (some centres not stated), the IC50 turned out to be 0.0153 µM in assay [2], 4.14 µM in assay [1] and 18.4 µM in assay [3].
For the compound `Cc1ccc(C2C[C@H]3CCC([C@H]2c2nn[nH]n2)N3C)cc1` (some centres not stated), the IC50 in assay [2] was 1.56 µM; in assay [1], 32.5 µM; in assay [3], 43.6 µM.
Turning to `CN1C2CC[C@@H]1CC(c1ccc(Cl)cc1)[C@@H]2c1nnn[nH]1` (some centres not stated), the IC50 was determined as 17.4 µM in assay [1] and 5.46 µM in assay [3].
Regarding `Cc1ccc(C2C[C@H]3CCC([C@H]2c2nnc(C)o2)N3C)cc1` (some centres not stated), the IC50 in assay [2] worked out at 0.00445 µM; in assay [1], 0.253 µM; in assay [3] it was 4.89 µM.
As to `CN1C2CC[C@@H]1CC(c1ccc(Cl)cc1)[C@H]2c1nc2ccccc2s1` (some centres not stated), the 50% inhibitory concentration (IC50) in assay [2] stood at 0.188 µM; in assay [1], 59.5 µM; in assay [3] it was 5.21 µM.
Consider `CN1C2CC[C@@H]1CC(c1ccc(Cl)cc1)[C@@H]2c1nnc(-c2ccccc2)o1` (some centres not stated), for which the IC50 stood at 0.0126 µM in assay [2], 0.929 µM in assay [1] and 3.3 µM in assay [3]. For the same compound, the affinity in assay [4] corresponds to a Ki of 0.0187 µM.
Turning to `Cc1ccc(C2C[C@H]3CCC([C@H]2C(=O)Oc2ccccc2)N3C)cc1` (some centres not stated), the IC50 in assay [2] was found to be 0.00326 µM; in assay [1], 5.8 µM; in assay [3], 24.5 µM.
Take `Cc1ccc(C2C[C@H]3CCC([C@@H]2c2nnc(-c4ccccc4)o2)N3C)cc1` (some centres not stated): the IC50 in assay [2] was 0.523 µM; in assay [1] it was 48.7 µM; in assay [3] it was 65 µM.
The matching figures for `Cc1ccc(C2C[C@H]3CCC([C@H]2c2ncc(-c4ccccc4)o2)N3C)cc1` (some centres not stated): 0.0354 µM, 0.677 µM and 1.7 µM.
Take `CN1C2CC[C@@H]1CC(c1ccc(Cl)cc1)[C@@H]2c1nc2ccccc2s1` (some centres not stated): the IC50 in assay [2] was 0.00137 µM; in assay [1] it was 0.403 µM; in assay [3], 1.12 µM.
As for `CN1C2CCC1[C@@H](c1nc(-c3ccccc3)no1)C(c1ccc(Cl)cc1)C2` (some centres not stated), the IC50 turned out to be 0.00162 µM in assay [2], 0.245 µM in assay [1] and 0.195 µM in assay [3]. In assay [4], the Ki (in general, the equilibrium dissociation constant of an inhibitor or competing ligand from its target) was found to be 0.00059 µM.
For the compound `Cc1ccc(C2C[C@H]3CCC([C@H]2c2nnc(-c4ccccc4)s2)N3C)cc1` (some centres not stated), the IC50 was 0.0359 µM in assay [2], 24.3 µM in assay [1] and 51.5 µM in assay [3].
For `CN1C2CC[C@@H]1CC(c1ccc(Cl)cc1)[C@@H]2C(=O)O` (some centres not stated), in that order: 2.07 µM, > 200 µM and 59.5 µM.
On to `CN1C2CC[C@@H]1CC(c1ccc(I)cc1)[C@@H]2c1cc(-c2ccccc2)no1` (some centres not stated), for which the IC50 in assay [2] worked out at 0.00257 µM; in assay [1], 0.868 µM; in assay [3], 0.1 µM.
For `CN1C2CC[C@@H]1CC(c1ccc(Cl)cc1)[C@H]2c1nnc(-c2ccccc2)o1` (some centres not stated), in that order: 1.1 µM, 286 µM and 19.2 µM.
For the compound `CN1C2CC[C@@H]1CC(c1ccc(Cl)cc1)[C@@H]2c1cc(-c2ccccc2)no1` (some centres not stated), the half-maximal inhibitory concentration (IC50) in assay [2] came out at 0.00128 µM; in assay [1], 0.504 µM; in assay [3] it was 2.42 µM. Further, the affinity in assay [4], expressed as Ki, was 0.00208 µM.
As for `Cc1ccc(C2C[C@H]3CCC([C@H]2c2nnc(-c4ccccc4)o2)N3C)cc1` (some centres not stated), the values for the IC50 in assay [2], in assay [1] and in assay [3] were 0.0475 µM, 1.31 µM and 23.3 µM, respectively.
As to `CN1C2CCC1[C@@H](c1ncc(-c3ccccc3)o1)C(c1ccc(Cl)cc1)C2` (some centres not stated), the values for the IC50 in assay [2], in assay [1] and in assay [3] were 0.0197 µM, 0.496 µM and 1.12 µM, respectively. In assay [4], this compound came in with a Ki of 0.019 µM.
For the compound `Cc1ccc(C2C[C@H]3CCC([C@H]2c2cc(C)no2)N3C)cc1` (some centres not stated), the IC50 in assay [2] is 0.00093 µM; in assay [1] it was 0.254 µM; in assay [3] it was 3.82 µM.
The matching figures for `Cc1ccc(C2C[C@H]3CCC([C@H]2c2nc(-c4ccccc4)no2)N3C)cc1` (some centres not stated): 0.00233 µM, 0.06 µM and 1.07 µM.
The matching figures for `Cc1cc([C@H]2C(c3ccc(I)cc3)C[C@H]3CCC2N3C)on1` (some centres not stated): 0.00073 µM, 0.0679 µM and 0.0364 µM.
Turning to `CN1C2CC[C@@H]1CC(c1ccc(Cl)cc1)[C@@H]2C(=O)Oc1ccccc1` (some centres not stated), the values for the IC50 in assay [2], in assay [1] and in assay [3] were 0.00198 µM, 2.95 µM and 2.3 µM, respectively. In assay [5], this compound displayed a Ki of 0.00525 µM.
Regarding `Cc1noc([C@H]2C(c3ccc(Cl)cc3)C[C@H]3CCC2N3C)n1` (some centres not stated), the IC50 came out at 0.363 µM in assay [1] and 2.58 µM in assay [3].
